Laboratory results from ChEMBL document CHEMBL2095176, “GSK Tuberculosis Screening Data”.
In brackets after ≈: the same amount, converted by molar mass.

What follows are molecules tested on Mycobacterium tuberculosis variant bovis BCG (assay: microbe, parasite or virus in culture).
Format: functional

| SMILES | MIC90 |
| --- | --- |
| c1ccc(Cc2nnc(Sc3ccnc(N4CCN(c5ccncc5)CC4)n3)n2CCCN2CCOCC2)cc1 | 2.7 µM (≈ 1.51 µg/mL) |
| COCCN(C)Cc1ccc(-c2cc(-c3c[nH]nc3-c3cccc(C)n3)ccn2)cc1 | 6 µM (≈ 2.48 µg/mL) |
| O=C(Nc1nc(-c2ccccn2)cs1)c1ccc(Oc2ccccc2)cc1 | 7 µM (≈ 2.61 µg/mL) |
| Cl.Cl.O=C(Nc1ccc(NC2=NCCN2)cc1)c1ccc(C(=O)Nc2ccc(NC3=NCCN3)cc2)cc1 | 0.4 µM |
| c1ccc2c(Cc3nnc(Sc4ccnc(N5CCN(c6ccncc6)CC5)n4)n3CCCN3CCOCC3)c[nH]c2c1 | 2.2 µM (≈ 1.31 µg/mL) |
| O=C(NNC(=O)N1CCN(C(c2ccccc2)c2ccc(Cl)cc2)CC1)c1ccc([N+](=O)[O-])o1 (stereo unspecified) | 1.1 µM (≈ 0.532 µg/mL) |
| O=C(CSc1ccc(Cl)cc1)Nc1nc(-c2ccccn2)cs1 | 4.7 µM (≈ 1.7 µg/mL) |
| Cc1cccc(-c2nc(Nc3ccncn3)c3sccc3n2)n1 | 0.3 µM (≈ 0.0961 µg/mL) |
| COc1cccc(CNc2nc(C)cc(-c3cccc(CN(C)C)c3)n2)c1 | 7 µM (≈ 2.54 µg/mL) |
| O=C(Nc1nnc(-c2ccc(Br)cc2)o1)c1cccc(F)c1 | 2.2 µM (≈ 0.797 µg/mL) |
| Fc1cccc(-c2nc(NCC3COc4ccccc4O3)no2)c1F (stereo unspecified) | 9.2 µM (≈ 3.18 µg/mL) |
| O=C(COCC(=O)Nc1nc(-c2ccccn2)cs1)Nc1nc(-c2ccccn2)cs1 | 4 µM (≈ 1.81 µg/mL) |
| Cc1ccc2[nH]c(SCC(=O)NNC(=O)c3cccs3)nc2c1 | 5.9 µM (≈ 2.04 µg/mL) |
| CCc1ccc(Nc2nnc(SCc3cc(C)on3)s2)cc1 | 7.4 µM (≈ 2.46 µg/mL) |
| Cc1cc(C)c2cc(C#N)c(N3CCCNCC3)nc2c1 | 4.3 µM (≈ 1.21 µg/mL) |
| CCCCc1cc(OC)c(C(=O)Nc2cccc3c2CCN(C)C3)cc1Cl | 6.4 µM (≈ 2.48 µg/mL) |
| CCN(CC)c1ccc(-c2nn3c(-c4n[nH]c5c4CCC5)nnc3s2)cc1 | 7 µM (≈ 2.66 µg/mL) |
| c1ccc(-n2ncc3c(N4CCCNCC4)nc(C4CC4)nc32)cc1 | 4.1 µM (≈ 1.37 µg/mL) |
| COc1ccccc1-c1cc(O)c2c(C)nn(-c3ccccc3)c2n1 | 2.1 µM (≈ 0.696 µg/mL) |
| COc1ccc(CN2CCC3(CCc4ccccc43)CC2)cc1OCc1ccccc1 | 2.4 µM (≈ 0.993 µg/mL) |
| COCCNc1nc(N2CCCC2)c2c(c1C#N)CCN(C)C2 | 0.8 µM (≈ 0.252 µg/mL) |
| O=C(Nc1ccc(C(=O)Nc2cccc(C3=NCCN3)c2)cc1)Nc1ccc(C2=NCCN2)cc1 | 4.6 µM (≈ 2.15 µg/mL) |
| CCCc1cc(=O)[nH]c(-n2nc(C)cc2NC(=O)CC(c2ccccc2)c2ccccc2)n1 | 7.5 µM (≈ 3.31 µg/mL) |
| Cc1cc(CN2CCCN(c3ncc(-c4ccsc4)c4nc(C(F)(F)F)ccc34)CC2)no1 | 9.8 µM (≈ 4.64 µg/mL) |

| SMILES | MIC90 |
| --- | --- |
| Cc1ccc2nc(C)c(-c3ccn(Cc4ccccc4)n3)n2c1 | 5.9 µM (≈ 1.78 µg/mL) |
| CCN(CC)CCCn1c(Cc2ccccc2)nnc1Sc1ccnc(N2CCN(c3ccncc3)CC2)n1 | 2.9 µM (≈ 1.58 µg/mL) |
| CC1=Nc2ccccc2CN1CC(O)c1cc(Br)cs1 (stereo unspecified) | 8.4 µM (≈ 2.95 µg/mL) |
| Br.CC1(C)NC(N)=NC(=N)N1OCCCOc1ccc(Cl)cc1Cl | 4.5 µM |
| O=C(Nc1nnc(-c2ccc(Br)cc2)o1)c1cccc(C(F)(F)F)c1 | 1.5 µM (≈ 0.618 µg/mL) |
| CCCn1nc(C(=O)N2CCN(c3ccccc3F)CC2)c2ccccc2c1=O | 8.7 µM (≈ 3.43 µg/mL) |
| FC(F)(F)c1cc(N2CCCNCC2)c2ccccc2n1 | 4.7 µM (≈ 1.39 µg/mL) |
| Cc1cc2ncn(-c3nccc(N4CCN(Cc5ccncc5)CC4)n3)c2cc1C | 2.8 µM (≈ 1.12 µg/mL) |
| O=C(OCc1c(F)cccc1Cl)c1ccc(-n2ncc(Cl)c(Cl)c2=O)cc1 | 3.7 µM (≈ 1.58 µg/mL) |
| O=C(Nc1nnc(-c2ccc3c(c2)CCCC3)o1)c1ccc(Br)s1 | 4.3 µM (≈ 1.74 µg/mL) |
| CCCc1ccc(S(=O)(=O)Nc2ccc(CN3CCN(CC4CC4)CC3)cc2)cc1.O=C(O)C(F)(F)F.O=C(O)C(F)(F)F | 8.1 µM |
| O=c1oc2ccccc2nc1CS(=O)(=O)c1ccc(Br)cc1 | 4.7 µM (≈ 1.79 µg/mL) |
| COc1ccc(-c2ccc(Nc3cccc(S(=O)(=O)CCN4CCc5ccccc5C4)c3)nc2)cn1 | 3.6 µM (≈ 1.8 µg/mL) |
| CC1CNC(c2ccc(NC(=O)c3ccc(C(=O)Nc4ccc(C5=NC(C)CN5)cc4)cc3)cc2)=N1 (stereo unspecified) | 0.8 µM (≈ 0.384 µg/mL) |
| Cn1nc(C(=O)N2CCc3sccc3C2c2cccs2)c2ccccc2c1=O (stereo unspecified) | 4.6 µM (≈ 1.87 µg/mL) |
| CNc1nc(SC)nc2ccsc12 | 10 µM (≈ 2.11 µg/mL) |
| O=C(Nc1ccc(N2CCNCC2)cc1)c1ccn2ncc(-c3cccc(Cl)c3)c2n1 | 8.5 µM (≈ 3.68 µg/mL) |
| CCSc1ccc(C(=O)Nc2nc(-c3ccccn3)cs2)cc1 | 2.3 µM (≈ 0.785 µg/mL) |
| Fc1ccc(-c2nnc3sc(Cc4ccccc4)nn23)cc1 | 8.6 µM (≈ 2.67 µg/mL) |
| CSc1nc2ccccc2n1-c1nccc(N2CCN(CCN)CC2)n1 | 9.9 µM (≈ 3.66 µg/mL) |
| c1ccc(-c2nc(N3CCCCCC3)nc(-n3ccnc3)n2)cc1 | 9.6 µM (≈ 3.08 µg/mL) |
| COc1cc(Cc2cnc(N)nc2N)c2cnccc2c1N(C)C | 6.4 µM (≈ 2.08 µg/mL) |
| Cc1nc(SCC(=O)Nc2sccc2C#N)n(Cc2ccc(Cl)cc2)c1C | 8.1 µM (≈ 3.38 µg/mL) |
| COc1ccc2cc(C(=O)Nc3ccc(C4CCN(C)CC4)cc3)sc2c1 | 2.9 µM (≈ 1.1 µg/mL) |

| SMILES | MIC90 |
| --- | --- |
| CCc1cc(=O)[nH]c(-n2nc(C)cc2NC(=O)c2cc3ccccc3o2)n1 | 3.8 µM (≈ 1.38 µg/mL) |
| CC(C)(C)C(=O)CC1(O)Oc2ccccc2N=C1C=C(O)C(C)(C)C (stereo unspecified) | 5.3 µM (≈ 1.83 µg/mL) |
| O=C(Nc1nnc(-c2ccc3c(c2)CCCC3)o1)c1ccc(Cl)s1 | 3.8 µM (≈ 1.37 µg/mL) |
| Cc1cc(/C=C/c2cccc(C(=O)O)c2)cc(Cl)c1OCC1CCCNC1 (stereo unspecified) | 6.7 µM (≈ 2.59 µg/mL) |
| c1ccc(-c2nnc(Sc3ccnc(N4CCN(c5ccncc5)CC4)n3)n2CCCN2CCOCC2)nc1 | 4.6 µM (≈ 2.51 µg/mL) |
| c1ccc(Nc2cc(-c3ccccc3)nc(-c3ccccn3)n2)cc1 | 3.7 µM (≈ 1.2 µg/mL) |
| C=CCNCCS(=O)(=O)c1cccc(Nc2ccc(-c3ccsc3)cn2)c1 | 6 µM (≈ 2.4 µg/mL) |
| COc1ccc(CN(C)S(=O)(=O)c2ccc(OC)c(-c3nc(C(C)C)no3)c2)cc1 | 7.3 µM (≈ 3.15 µg/mL) |
| Cc1nn(-c2nc(-c3ccccn3)nc3ccsc23)c(N)c1C#N | 7 µM (≈ 2.33 µg/mL) |
| CCc1nnc(NC(=O)c2cccc(C(=O)Nc3nnc(CC)s3)n2)s1 | 1.5 µM (≈ 0.584 µg/mL) |
| CCOc1ccc(C=C(C(=O)NCc2ccc(F)cc2)c2nc3ccccc3[nH]2)cc1 | 6.1 µM (≈ 2.53 µg/mL) |
| COc1ccc(-c2nc(CCNC(=O)c3ccc(OC)cc3OC)cs2)cc1 | 6.4 µM (≈ 2.55 µg/mL) |
| CCOc1cc(OCC)c(C(=O)C(C)C)cc1C(=O)Nc1cccc2c1CCN(C)C2 | 9.6 µM (≈ 4.08 µg/mL) |
| C=CCNc1nc(SC)nc2ccccc12 | 4.4 µM (≈ 1.02 µg/mL) |
| COCCN1CCN(c2ncc(-c3ccccc3OCc3cc(C)on3)cn2)CC1 | 4.4 µM (≈ 1.8 µg/mL) |
| Cc1nn(CC(C)C)c2sc(C(=O)Nc3nc(-c4ccccn4)cs3)cc12 | 3.7 µM (≈ 1.47 µg/mL) |
| COc1ccc(-c2ccc(Nc3cccc(S(=O)(=O)CCNCC4CC4)c3)nc2)cn1 | 5.6 µM (≈ 2.46 µg/mL) |
| O=C(Nc1nc(-c2ccccn2)cs1)c1cc2ccccc2o1 | 7 µM (≈ 2.25 µg/mL) |
| Cc1ccc(CCNC(=O)c2c(-c3ccc(F)cc3F)noc2C)cc1 | 9.8 µM (≈ 3.49 µg/mL) |
| Cc1cc(Oc2cccc3[nH]ccc23)nc(N2CCNCC2)n1 | 6.2 µM (≈ 1.92 µg/mL) |
| CN(C)CCNCc1ccc(-c2cc(Cl)cc(Cl)c2)o1 | 2.7 µM (≈ 0.846 µg/mL) |
| O=C(COc1ccc(Br)cc1)NNC(=O)c1cccs1 | 2.4 µM (≈ 0.853 µg/mL) |
| CCc1nc2ccccc2n1CC(O)COc1cc(C)ccc1Cl (stereo unspecified) | 9.7 µM (≈ 3.34 µg/mL) |
| CCc1c(C)nc(-n2nc(C)cc2NC(=O)CCc2ccccc2)[nH]c1=O | 3.8 µM (≈ 1.39 µg/mL) |

| SMILES | MIC90 |
| --- | --- |
| COc1cc(Nc2ccccc2)ccc1NS(=O)(=O)c1ccc(-c2cc(C(F)(F)F)n(C)n2)s1 | 2.8 µM (≈ 1.42 µg/mL) |
| O=C(Nc1nnc(-c2ccc(F)cc2)o1)c1ccc(C(F)(F)F)cc1 | 6 µM (≈ 2.11 µg/mL) |
| CCCc1ccc(S(=O)(=O)Nc2cc(CN3CCN(CCC)CC3)ccc2C)cc1 | 9.9 µM (≈ 4.25 µg/mL) |
| O=C(Nc1nnc(-c2ccc(Cl)cc2)o1)c1cccc(C(F)(F)F)c1 | 5.3 µM (≈ 1.95 µg/mL) |
| Cc1ccc(-n2cc3c(-c4ccc(Cl)cc4)nnc(C)c3n2)cc1 | 5.7 µM (≈ 1.91 µg/mL) |
| COc1ccc(Nc2ccccc2NC(=O)c2ccc(O)nc2)cc1 | 9 µM (≈ 3.02 µg/mL) |
| c1ccc(-c2csc(CN3CCC4(CC3)OCCc3sccc34)c2)cc1 | 2.7 µM (≈ 1.03 µg/mL) |
| COCCCNCCOc1ccc2ccccc2c1Br | 6.8 µM (≈ 2.3 µg/mL) |
| O=C(/C=C/c1ccc(C(F)(F)F)cc1F)NC1CCN(c2ncccc2C(F)(F)F)CC1 | 4.2 µM (≈ 1.94 µg/mL) |
| CCCCS(=O)(=O)Nc1ccc2cnn(C)c2c1 | 0.5 µM (≈ 0.134 µg/mL) |
| Cc1cc(C)c2cc(CN(Cc3cccnc3)C(=O)c3ccc(F)cc3)c(Cl)nc2c1 | 2.9 µM (≈ 1.26 µg/mL) |
| CCOC(=O)CC[C@H](NC(=O)c1ccc(S(=O)(=O)Nc2ccc3nc(N)[nH]c(=O)c3c2)cc1)C(=O)OCC | 2.4 µM (≈ 1.31 µg/mL) |
| O=C(CSc1nnc(-c2ccccc2)o1)Nc1nc(-c2ccccn2)cs1 | 6.6 µM (≈ 2.61 µg/mL) |
| COc1cc(-c2ccccc2)c(Cl)cc1C(=O)Nc1cccc2c1CCN(C)C2 | 5.9 µM (≈ 2.4 µg/mL) |
| Cc1c(Cl)ccc2sc(N(CCN(C)C)C(=O)c3ccc(S(C)(=O)=O)cc3)nc12 | 7 µM (≈ 3.16 µg/mL) |
| COCCN1CCN(c2ccnc(-n3cnc4cc(C)c(C)cc43)n2)CC1 | 0.8 µM (≈ 0.293 µg/mL) |
| CNC(=O)c1cc(Nc2ncc(F)c(N(C)c3ccc4c(C)[nH]nc4c3)n2)ccc1OCC1CCNCC1 | 8.8 µM (≈ 4.56 µg/mL) |
| CCOC(=O)c1csc(-c2ccccc2NC(=O)OCC2CCNCC2)n1 | 9.3 µM (≈ 3.62 µg/mL) |
| CCOc1ccc(-n2nc3c(C)nnc(NCc4ccccc4)c3c2C)cc1 | 4.8 µM (≈ 1.79 µg/mL) |
| Cn1ccnc1CNCCS(=O)(=O)c1cccc(Nc2ccc(-c3cccc(F)c3)cn2)c1 | 4.3 µM (≈ 2 µg/mL) |
| CC(=O)Nc1ccc(S(=O)(=O)Nc2ccccc2Nc2ccc(C)cc2)cc1 | 1.9 µM (≈ 0.751 µg/mL) |
| C[C@@H](NCCc1nc(-c2cn(C)c3ccccc23)no1)C1CCCCC1.Cl | 9.4 µM |
| O=C(Nc1cccc2cccnc12)c1cnccn1 | 9.4 µM (≈ 2.35 µg/mL) |
| O=C(c1ccccc1)N1CCN(c2ccccc2NC(=O)C(Cl)(Cl)Cl)CC1 | 1 µM (≈ 0.427 µg/mL) |
